Patent publication US20260200849A1, “CATIONIC LIPIDS AND PREPARATION METHOD THEREOF” (RiboX Therapeutics HK Limited, priority 2024, published 2026)

What was measured:
Balb/c mice = experiment: In vivo expression by IV, 0.05 mg/kg luciferase RNA-LNPs, IVIS luminescence; conditions: Formulation No. 001, RNA No. 331; female Balb/c mice, 0.05 mg*kg−1 intravenous, 24-hours post injection
Summary of the method: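 IVIS bioluminescence was read after IP luciferin (15 mg/ml): whole-body at 24 and 72 h, or whole-body/liver/spleen at 24 h. Dosing was a single IV injection of 0.05 mg*kg−1 RNA-LNPs encoding firefly luciferase into 7-8 week old female Balb/c mice, N=3.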

IL-6 = experiment: In vivo tolerability by IV: serum IL-6 by Luminex; set-up: species or system C57BL/6J mice; conditions: Formulation No. 001, RNA No. 331, male C57BL/6J mice, 1.0 mg*kg/1 intravenous; for IL-6 at 2 h: 2 hours post injection; for IL-6 at 24 h: 24 hours post injection
Description: (§1) 6-8 week old, male C57BL/6J mice (N=3) were injected with 1.0 mg*kg/1 of RNA-LNPs encoding for firefly-luciferase by intravenous injection. At 2- and 24-hours post injection, about 40 μL blood was harvested and immediately added to the procoagulant containing tube. Stand for 30 min at room temperature and then centrifuged at 2500 g×10 min to obtain serum. About 15 μL serum samples were aliquoted for cytokine (MCP-1 and IL-6) detection by Luminex (ProcartaPlex Mouse 2-plex, Thermo). PBS group as negative control.
as §1, with “mg*kg−1” for “mg*kg/1”

Hep G2 cells [1] = experiment: In vitro toxicity: Hep G2 cell viability by CellTiter-Glo; format: cell-based; conditions: Formulation No. 001, RNA No. 331, 1 μg/mL RNA-LNPs, 72 hours post transfection, cell only = 100%
Description: 2E5 Hep G2 cells were transfected with 1 μg/mL RNA-LNPs. At 72 hours post transfection, cell viability (2-well repeat) was determined with the CellTiter-Glo® reagent kit, according to the kit protocol, measured by a luminometer. Cell only as control (100%).
The cell viability was calculated according to the following formula: […]

Hep G2 cells [2] = experiment: In vitro expression: luciferase activity in Hep G2 cells transfected with RNA-LNPs; format: cell-based; conditions: Formulation No. 001, RNA No. 331 (firefly-luciferase), 100 ng/mL RNA-LNPs, 72 hours post transfection
Description: 2E5 Hep G2 cells were transfected with 100 ng/mL of RNA-LNPs encoding for firefly-luciferase. At 72 hours post transfection, the cells were washed and lysed. The luciferase expression (2-well repeat) was determined in the cell lysates with the luciferase assay reagent kit (Promega), according to the kit protocol, luciferase activity was measured by a luminometer.

C57BL/6J mice = experiment: In vivo expression by IV, 1.0 mg/kg luciferase RNA-LNPs, whole-body and organ IVIS luminescence; conditions: Formulation No. 001, RNA No. 331; male C57BL/6J mice, 1.0 mg*kg−1 intravenous, 24-hours post injection
Description: (§2) 6-8 week old, male C57BL/6J mice (N=3) were injected with 1.0 mg*kg−1 of RNA-LNPs encoding for firefly-luciferase by intravenous injection. At 24-hours post injection, animals were intraperitoneally injected with 15 mg/ml of Luciferin substrate and whole-body/liver/spleen/kidney/small intestine/large intestine luminescence were determined by a bioluminescent in vivo imaging system (IVIS).
as §2, with “mg/nil” for “mg/ml”

[3] = LNP size and polydispersity index (PDI) by dynamic light scattering (Zetasizer); format: physicochemical; conditions: for Size (nm): Formulation No. 001 (Ionizable lipid:DSPC:cholesterol:DMG-PEG2000 = 50:10:38.5:1.5, N/P 6), RNA No. 331; for PDI: Formulation No. 001, RNA No. 331
Description: (§3) The LNP size and polydispersity index (PDI), determined by dynamic light scattering (DLS), and zeta potential were measured by a Zetasizer machine (Malvern). RNA concentration and encapsulation efficacy (EE %) were analyzed by the Quant-IT Ribogreen kit by calculating the percentage encapsulation at 100%—(RNA-LNPs/RNA-LNPs with Triton X-100).

[4] = RNA encapsulation efficacy (EE %) by Quant-IT Ribogreen kit; format: physicochemical; conditions: LNP, Formulation No. 001, RNA No. 331
Description: as §3

MCP-1 = experiment: In vivo tolerability by IV: serum MCP-1 by Luminex; set-up: species or system C57BL/6J mice; conditions: Formulation No. 001, RNA No. 331, male C57BL/6J mice, 1.0 mg*kg/1 intravenous; for MCP-1 at 2 h: 2 hours post injection; for MCP-1 at 24 h: 24 hours post injection
Description: as §1
as §1, with “mg*kg−1” for “mg*kg/1”

Row | SMILES | Size (nm) [3] [nm] | PDI [3] | EE (%) [4] [%] | Liver (p/s) (Mean) (Balb/c mice) | Spleen (p/s) (Mean) (Balb/c mice) | Whole body (p/s) (Mean) (Balb/c mice) | IL-6 at 2 h (IL-6) [pg/mL] | IL-6 at 24 h (IL-6) [pg/mL] | In vitro cell viability (%) (Mean) (Hep G2 cells [1]) | In vitro Expression (Mean) (Hep G2 cells [2]) | Kidney (p/s) (C57BL/6J mice) | Large intestine (p/s) (C57BL/6J mice) | Liver (p/s) (C57BL/6J mice) | Small intestine (p/s) (C57BL/6J mice) | Spleen (p/s) (C57BL/6J mice) | Whole body (p/s) (C57BL/6J mice) | MCP-1 at 2 h (MCP-1) [pg/mL] | MCP-1 at 24 h (MCP-1) [pg/mL]
1 | CCCCC/C=C\C/C=C\CCCCCCCCOC(=O)NC(COC(=O)NCCNC)C(=O)OCCCCCC(=O)OCC(CCCCCCCC)CCCCCCCCCC (stereo not drawn) [Lipid 907] | 83.82 | 0.02 | 98.30 | 1.46E+08 | 3.43E+07 | 1.18E+09 | 14 | 2.35 | 97.33 | 2.56E+04 | 5.43E+06 | 3.94E+07 | 1.91E+08 | 3.03E+08 | 5.98E+07 | 8.99E+08 | 1020 | 81.5
2 | CCCCCCCCC(CCCCCC)C(=O)OCCCCCCCCOC(=O)NC(COC(=O)NCCN1CCCCCC1)C(=O)OCCCCCCCCOC(=O)C(CCCCCC)CCCCCCCC (stereo not drawn) [Lipid 889] | 61.64 | 0.02 | 95.41 | 1.70E+08 | 8.56E+07 | 1.04E+09 | 7.62 | 4.69 | 91.21 | 2.46E+05 | 3.47E+07 | 2.12E+08 | 5.79E+09 | 1.04E+09 | 2.95E+08 | 3.48E+09 | 760 | 286
3 | CCCCCCCC/C=C\CCCCCCCC(=O)NC(COC(=O)NCCN1CCCCC1)C(=O)OCCCCCCCC(=O)OC(CCCCCCCC)CCCCCCCC (stereo not drawn) [Lipid 736] | 66.29 | 0.01 | 91.61 | 2.87E+08 | 1.39E+08 | 2.08E+09 | 442 | 3.03 | 73.49 | 7.05E+05 | 5.22E+07 | 1.78E+08 | 2.87E+09 | 6.48E+08 | 3.38E+08 | 5.28E+09 | 3830 | 260

Continued, in another order:

Row | Size (nm) [3] [nm] | PDI [3] | EE (%) [4] [%] | SMILES | Liver (p/s) (Mean) (Balb/c mice) | Spleen (p/s) (Mean) (Balb/c mice) | Whole body (p/s) (Mean) (Balb/c mice) | IL-6 at 2 h (IL-6) [pg/mL] | IL-6 at 24 h (IL-6) [pg/mL] | In vitro cell viability (%) (Mean) (Hep G2 cells [1]) | In vitro Expression (Mean) (Hep G2 cells [2]) | Kidney (p/s) (C57BL/6J mice) | Large intestine (p/s) (C57BL/6J mice) | Liver (p/s) (C57BL/6J mice) | Small intestine (p/s) (C57BL/6J mice) | Spleen (p/s) (C57BL/6J mice) | Whole body (p/s) (C57BL/6J mice) | MCP-1 at 2 h (MCP-1) [pg/mL] | MCP-1 at 24 h (MCP-1) [pg/mL]
4 | 75.47 | 0.02 | 92.12 | CCCCCCCCCC(=O)OCCCCCCCOC(=O)C(COC(=O)NCCN1CCCCC1)NC(=O)OCCCCCCCCOC(=O)C(CCCCCC)CCCCCCCC (stereo not drawn) [Lipid 933] | 6.92E+08 | 1.49E+08 | 2.89E+09 | 68.4 | 8.03 | 95.05 | 1.26E+06 | 6.08E+07 | 9.52E+07 | 3.90E+09 | 6.36E+08 | 5.98E+08 | 3.45E+09 | 1240 | 300
5 | 63.50 | 0.04 | 91.60 | CCCCC/C=C\C/C=C\CCCCCCCCOC(=O)NC(COC(=O)NCCN1CCCCCC1)C(=O)OCCCCCCCC(=O)OC(CCCCCCCC)CCCCCCCC (stereo not drawn) [Lipid 858] | 3.71E+08 | 6.61E+07 | 8.74E+08 | 23 | 3.13 | 92.44 | 2.88E+05 | 2.31E+07 | 1.58E+08 | 8.64E+08 | 6.45E+08 | 2.33E+08 | 1.92E+09 | 1360 | 111
6 | 83.18 | 0.01 | 88.46 | CCCCC/C=C\CCOC(=O)CCCCCOC(=O)C(COC(=O)NCCN1CCCCC1)NC(=O)OCCCCCCCCOC(=O)C(CCCCCC)CCCCCCCC (stereo not drawn) [Lipid 954] | 8.01E+08 | 9.82E+07 | 2.71E+09 | 4220 | 8.87 | 93.41 | 4.78E+05 | 1.53E+08 | 9.03E+08 | 3.01E+09 | 1.69E+09 | 7.74E+08 | 1.08E+10 | 4780 | 789
7 | 61.73 | 0.02 | 90.26 | CCCCC/C=C\C/C=C\CCCCCCCCOC(=O)NC(COC(=O)NCCN1CCCCCC1)C(=O)OCCCCCCCCOC(=O)C(CCCCCC)CCCCCCCC (stereo not drawn) [Lipid 881] | 2.25E+08 | 6.14E+07 | 1.18E+09 | 12.8 | 6.69 | 86.94 | 4.02E+05 | 4.26E+07 | 1.30E+08 | 1.65E+09 | 8.57E+08 | 2.37E+08 | 2.92E+09 | 1190 | 253
8 | 86.75 | 0.17 | 90.80 | CCCCC/C=C\C/C=C\CCCCCCCCOC(=O)NC(COC(=O)NCCN1CCCCCC1)C(=O)OCCCCCCCOC(=O)CCCCCCCCC (stereo not drawn) [Lipid 944] | 5.10E+08 | 1.31E+08 | 1.29E+09 | 432 | 2.5 | 95.62 | 3.60E+05 | 1.54E+07 | 5.53E+07 | 5.27E+08 | 1.93E+08 | 4.76E+08 | 1.06E+09 | 3640 | 161
